Data as given in patent USRE46792E1, “Oxazole compound and pharmaceutical composition” (Otsuka Pharmaceutical Co., Ltd., priority 2005, dated 2018).

Target: human PDE4D3 (PDE4D) (Homo sapiens (Human), UniProt Q08499)
Test: Phosphodiesterase (PDE)4 inhibitory activity evaluation test ([3H]cAMP hydrolysis by PDE4D enzyme solution)
Format: biochemical
Details: recombinant human PDE4D3 expressed in COS-7 cells; [3H]cAMP substrate; 10 min at 30° C.; 2% DMSO
Source text: Phosphodiesterase (PDE)4 Inhibitory Activity Evaluation Test
(1) Large Scale Plasmid Preparation
Plasmid containing genes (HPDE4D) coding for human PDE4D3 cDNA (stored in Otsuka America Pharmaceutical, Inc., Maryland Research Laboratories) was transformed in E. coli, cultured on a large scale, and purified using an EndoFree™ Plasmid Maxi Kit (Qiagen).
(2) Abundant Expression and Purification of PDE4D
COS-7 cells derived from African green monkey kidneys were passage cultured in D-MEM media containing 100 units/ml penicillin, 100 μg/ml streptomycin, and 10% FBS. The cells were transfected with the plasmid prepared in (1) above using Lipofectamine™ 2000 (hereinafter referred to as “LF2000”, Invitrogen), following the manufacturer's protocol. The COS-7 cells were inoculated in a 10 cm culture dish on the previous day so as to be 90% confluent on the day of transfection. Culture dishes each containing a plasmid solution (solution A) in which 24 μg of plasmid was diluted in 1.5 ml Opti-MEM I Reduced Serum Medium (Invitrogen) and an LF2000 solution (solution B) in which 60 μl of LF2000 was diluted in 1.5 ml Opti-MEM I Reduced Serum Medium were separately allowed to stand for 5 minutes at room temperature. Solutions A and B were then mixed and the mixture was allowed to stand for 20 minutes at room temperature. The mixture was added to the cultured cells, and incubated at 37° C. (5% CO2) overnight. On the following day, the medium was replaced, and the mixture was further incubated overnight to harvest the cells in the following manner. The cells were washed with PBS (Sigma) once, and 10 ml of a Trypsin-EDTA solution (Sigma) was added to each culture dish. After the solution was distributed to each of the culture dishes, the cells were detached, and the dishes were allowed to stand for about 5 minutes at 37° C. The detached cells from the dishes were suspended in media, collected into centrifuge tubes, and centrifuged at 1200 rpm for 5 minutes at 4° C., and supernatants were removed. The cells were further washed with PBS, and stored at −80° C. KHEM buffer (100 mM Hepes, 50 mM KCl, 10 mM EGTA, 1.92 mM MgCl2, pH 7.4) containing 1 mM DTT, 1 μg/ml antipain, 1 μg/ml aprotinin, 1 μg/ml leupeptin, 1 μg/ml pepstatin A, 157 μg/ml benzamidine, and 120 μg/ml Pefabloc SC was added to the stored cells, and the contents were moved to a glass homogenizer to be homogenized on ice. The cell suspension was centrifuged at 1000 rpm for 5 minutes at 4° C., and the supernatant was further centrifuged at 14000 rpm for one hour. After centrifugation, the supernatant was dispensed into new tubes as PDE4D enzyme solutions, and stored in a deep freezer.
(3) Determination on Dilution Ratio of PDE4D Enzyme Solutions
The PDE4D enzyme solutions prepared in (2) above were dissolved in 20 mM Tris-HCl solution (pH 7.4) to give 10-, 25-, 50-, 100-, 200-, 400-, and 800-fold dilutions of the enzyme solutions. PDE4D activities were measured according to (4) below. The percentage of catalyzed cAMP to total cAMP was calculated, and such a dilution, in which the percentage was between 10% and 30%, was adopted in the inhibitory study below.
(4) Measurement of PDE4D Inhibitory Activity
Necessary amounts of test compounds were weighed, and 100% dimethylsulfoxide (DMSO) was added thereto to adjust the concentration to 10 mM. The solutions were stored in a freezer as stock solutions of each test compound. After being thawed when required, the solutions were diluted 20-fold with 100% DMSO to give a 500 μM concentration. Further, 10-fold serial dilutions were made with 100% DMSO to prepare test compounds of different concentrations. 2 μl of solutions containing one of each of the test compound were separately added into 1.2 ml tubes in which 23 μl of 20 mM Tris-HCl (pH 7.4) had been placed beforehand. […]

Sequence of human PDE4D3 (PDE4D) (Q08499 other isoform, or with tags, fused parts or gaps): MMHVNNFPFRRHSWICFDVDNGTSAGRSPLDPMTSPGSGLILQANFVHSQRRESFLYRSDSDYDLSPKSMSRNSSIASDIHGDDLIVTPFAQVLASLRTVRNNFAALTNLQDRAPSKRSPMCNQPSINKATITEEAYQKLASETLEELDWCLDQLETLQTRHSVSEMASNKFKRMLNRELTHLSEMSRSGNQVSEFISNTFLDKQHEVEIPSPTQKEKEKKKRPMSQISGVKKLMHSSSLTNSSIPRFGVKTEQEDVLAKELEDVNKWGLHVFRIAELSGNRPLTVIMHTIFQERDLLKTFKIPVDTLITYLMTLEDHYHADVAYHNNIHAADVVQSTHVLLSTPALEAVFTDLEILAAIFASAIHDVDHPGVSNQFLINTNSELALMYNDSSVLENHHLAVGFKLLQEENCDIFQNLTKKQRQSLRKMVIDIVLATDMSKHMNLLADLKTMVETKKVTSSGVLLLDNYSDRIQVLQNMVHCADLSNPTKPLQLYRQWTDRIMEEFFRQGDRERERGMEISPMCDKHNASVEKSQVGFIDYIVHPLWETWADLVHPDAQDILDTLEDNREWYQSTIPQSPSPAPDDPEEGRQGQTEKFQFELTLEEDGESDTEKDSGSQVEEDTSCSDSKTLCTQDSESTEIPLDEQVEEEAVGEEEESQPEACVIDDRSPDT

“3-[2-(3-hydroxy-4-methoxyphenyl)oxazol-4-yl]-1-(2-methoxymethoxy phenyl)propan-1-one [Example 232]” showed an IC50 of less than 50 nM.
In the case of `CCOc1ccccc1C(=O)NCc1coc(-c2ccc(OC)c(OCC(C)C)c2)n1` [Example 14, N-[2-(3-isobutoxy-4-methoxyphenyl)oxazol-4-ylmethyl]-2-ethoxy benzamide], the IC50 is reported as less than 50 nM.
Compound `COc1ccc(-c2nc(CNC(=O)c3ncccc3C)co2)cc1OCC(F)(F)F` [Example 19, N-{2-[4-methoxy-3-(2,2,2-trifluoroethoxy)phenyl]oxazol-4-ylmethyl}-3-methylpicolinamide] has an IC50 of less than 50 nM.
For `C=CCOc1cc(-c2nc(CNC(=O)c3ncccc3C)co2)ccc1OC` [Example 21, N-[2-(3-allyloxy-4-methoxyphenyl)oxazol-4-ylmethyl]-3-methylpicolinamide], the IC50 was less than 50 nM.
Work on `COc1ccc(-c2nc(CNC(=O)c3ncccc3C)co2)cc1OC1Cc2ccccc2C1` [Example 22, N-{2-[3-(indan-2-yloxy)-4-methoxyphenyl]oxazol-4-ylmethyl}-3-methylpicolinamide] yielded an IC50 of less than 50 nM.
`CCOc1cccnc1C(=O)NCc1coc(-c2ccc(OC)c(OC3CCCC3)c2)n1` [Example 29, N-[2-(3-cyclopentyloxy-4-methoxyphenyl)oxazol-4-ylmethyl]-3-ethoxypicolinamide] was tested, and the IC50 was less than 50 nM.
With `COc1ccc(-c2nc(CNC(=O)c3ccccc3OCC(F)(F)F)co2)cc1OCC1CC1` [Example 32, N-[2-(3-cyclopropylmethoxy-4-methoxyphenyl)oxazol-4-ylmethyl]-2-(2,2,2-trifluoroethoxy)benzamide] the IC50 was less than 50 nM.
In the case of `COc1ccc(-c2nc(CNC(=O)c3ccccc3OC)co2)cc1OC1CCCC1` [Example 35, N-[2-(3-cyclopentyloxy-4-methoxyphenyl)oxazol-4-ylmethyl]-2-methoxybenzamide], the IC50 is reported as less than 50 nM.
`COc1ccc(-c2nc(CNC(=O)c3ncccc3C)co2)cc1OCC1CC1` [Example 36, N-[2-(3-cyclopropylmethoxy-4-methoxyphenyl)oxazol-4-ylmethyl]-3-methylpicolinamide] showed an IC50 of less than 50 nM.
Work on `COc1ccc(-c2nc(CNC(=O)c3ccc(F)cc3OC)co2)cc1OCC1CC1` [Example 42, N-[2-(3-cyclopropylmethoxy-4-methoxyphenyl)oxazol-4-ylmethyl]-4-fluoro-2-methoxybenzamide] yielded an IC50 of less than 50 nM.
In the case of `COc1ccc(-c2nc(CNC(=O)c3ccccc3SC)co2)cc1OCC1CC1` [Example 44, N-[2-(3-cyclopropylmethoxy-4-methoxyphenyl)oxazol-4-ylmethyl]-2-methylsulfanylbenzamide], the IC50 is reported as less than 50 nM.
With `CCCOc1cccnc1C(=O)NCc1coc(-c2ccc(OC)c(OCC3CC3)c2)n1` [Example 61] the IC50 was less than 50 nM.
`COc1ccc(-c2nc(CNC(=O)c3ncccc3C)co2)cc1OCC(C)C` [Example 62, N-[2-(3-isobutoxy-4-methoxyphenyl)oxazol-4-ylmethyl]-3-methylpicolinamide] showed an IC50 of less than 50 nM.
In the case of `COc1ccc(-c2nc(CNC(=O)c3ccccc3OC)co2)cc1OCC(C)C` [Example 63, N-[2-(3-isobutoxy-4-methoxyphenyl)oxazol-4-ylmethyl]-2-methoxybenzamide], the IC50 is reported as less than 50 nM.
`Cc1cccnc1C(=O)NCc1coc(-c2ccc(OC(F)F)c(OCC3CC3)c2)n1` [Example 98, N-[2-(3-cyclopropylmethoxy-4-difluoromethoxyphenyl)oxazol-4-ylmethyl]-3-methylpicolinamide] gave an IC50 of less than 50 nM.
With `CCOc1ccccc1C(=O)CCc1coc(-c2ccc(OC)c(OCC3CC3)c2)n1` [Example 102, 3-[2-(3-cycropropylmethoxy-4-methoxyphenyl)oxazol-4-yl]-1-(2-ethoxyphenyl)propan-1-one] the IC50 was less than 50 nM.
With `CCOc1cc(-c2nc(CCC(=O)c3ccccc3OCC)co2)ccc1OC` [Example 103, 3-[2-(3-ethoxy-4-methoxyphenyl)oxazol-4-yl]-1-(2-ethoxyphenyl)propan-1-one] the IC50 was less than 50 nM.
For `C=CCOc1cc(-c2nc(CCC(=O)c3ccccc3OCC)co2)ccc1OC` [Example 104, 3-[2-(3-allyloxy-4-methoxyphenyl)oxazol-4-yl]-1-(2-ethoxyphenyl)propan-1-one], the IC50 was less than 50 nM.
Work on `C=CCCOc1cc(-c2nc(CCC(=O)c3ccccc3OCC)co2)ccc1OC` [Example 108, 3-[2-(3-(3-butenyloxy)-4-methoxyphenyl)oxazol-4-yl]-1-(2-ethoxyphenyl)propan-1-one] yielded an IC50 of less than 50 nM.
In the case of `CCOc1ccccc1C(=O)CCc1coc(-c2ccc(OC)c(OC(C)C)c2)n1` [Example 111, 1-(2-ethoxyphenyl)-3-[2-(3-isopropoxy-4-methoxyphenyl)oxazol-4-yl]propan-1-one], the IC50 is reported as less than 50 nM.
`CCOc1ccccc1C(=O)CCc1coc(-c2ccc(OC)c(OCC(F)(F)F)c2)n1` [Example 112, 1-(2-ethoxyphenyl)-3-{2-[4-methoxy-3-(2,2,2-trifluoroethoxy)phenyl]oxazol-4-yl}propan-1-one] was tested, and the IC50 was less than 50 nM.
`CCOc1ccccc1C(=O)CCc1coc(-c2ccc(OC)c(OCC3CCC3)c2)n1` [Example 116, 3-[2-(3-cyclobutylmethoxy-4-methoxyphenyl)oxazol-4-yl]-1-(2-ethoxyphenyl)propan-1-one] was tested, and the IC50 was less than 50 nM.
Work on `COc1ccc(-c2nc(CCC(=O)c3ncccc3OC)co2)cc1OCC(F)(F)F` [Example 129, 1-(3-methoxypyridin-2-yl)-3-{2-[4-methoxy-3-(2,2,2-trifluoroethoxy)phenyl]oxazol-4-yl}propan-1-one] yielded an IC50 of less than 50 nM.
`CCOc1cccnc1C(=O)CCc1coc(-c2ccc(OC)c(OC3CCCC3)c2)n1` [Example 132, 3-[2-(3-cyclopentyloxy-4-methoxyphenyl)oxazol-4-yl]-1-(3-ethoxypyridin-2-yl)propan-1-one] was tested, and the IC50 was less than 50 nM.
With `CCOc1cccnc1C(=O)CCc1coc(-c2ccc(OC)c(OCC3CC3)c2)n1` [Example 133, 3-[2-(3-cyclopropylmethoxy-4-methoxyphenyl)oxazol-4-yl]-1-(3-ethoxypyridin-2-yl)propan-1-one] the IC50 was less than 50 nM.
`COc1ccc(-c2nc(CCC(=O)c3ncccc3C)co2)cc1OCC1CC1` [Example 137, 3-[2-(3-cyclopropylmethoxy-4-methoxyphenyl)oxazol-4-yl]-1-(3-methylpyridin-2-yl)propan-1-one] was tested, and the IC50 was less than 50 nM.
In the case of `CCOc1cc(-c2nc(CCC(=O)c3ncccc3C)co2)ccc1OC` [Example 138, 3-[2-(3-ethoxy-4-methoxyphenyl)oxazol-4-yl]-1-(3-methylpyridin-2-yl)propan-1-one], the IC50 is reported as less than 50 nM.
In the case of `COc1ccc(-c2nc(CCC(=O)c3ncccc3C)co2)cc1OC(C)C` [Example 139, 3-[2-(3-isopropoxy-4-methoxyphenyl)oxazol-4-yl]-1-(3-methylpyridin-2-yl)propan-1-one], the IC50 is reported as less than 50 nM.
With `C=CCOc1cc(-c2nc(CCC(=O)c3ncccc3C)co2)ccc1OC` [Example 140, 3-[2-(3-allyloxy-4-methoxyphenyl)oxazol-4-yl]-1-(3-methylpyridin-2-yl)propan-1-one] the IC50 was less than 50 nM.
In the case of `COc1ccc(-c2nc(CCC(=O)c3ncccc3C)co2)cc1OCC1CCC1` [Example 141, 3-[2-(3-cyclobutylmethoxy-4-methoxyphenyl)oxazol-4-yl]-1-(3-methylpyridin-2-yl)propan-1-one], the IC50 is reported as less than 50 nM.
`CCCOc1cc(-c2nc(CCC(=O)c3ncccc3C)co2)ccc1OC` [Example 143, 3-[2-(4-methoxy-3-propoxyphenyl)oxazol-4-yl]-1-(3-methylpyridin-2-yl)propan-1-one] showed an IC50 of less than 50 nM.
